Article PMC9573943, “Contribution of the 12–17 hydrophobic region of islet amyloid polypeptide in self-assembly and cytotoxicity” (Frontiers in Molecular Biosciences, 2022)
Bridge positions count the residues as written; N and C are the ends. Ends that are not written are not given here.

Assays:
[1] = Kinetics of amyloid formation monitored by ThT fluorescence; format: physicochemical; conditions: 25 μM peptide, 40 μM ThT, 20 mM Tris-HCl pH 7.4, 25°C, no agitation, nonbinding surface 96-well plate, read every 10 min, lag time = T50 - 2/k, mean ± S.D. of at least six assays
Protocol: Aggregation mixtures were prepared by dissolving the lyophilized peptide at a concentration of 50 μM in 20 mM Tris-HCl, pH 7.4. Assays were performed at 25°C without stirring in sealed black-wall clear-bottom 96-well nonbinding surface plates with 100 μL/well. Final peptide concentrations were 12.5 and 25 μM, and thioflavin T (ThT) concentration was fixed at 40 μM. Fluorescence was measured every 10 min (excitation: 440 nm, emission: 485 nm) and data from triplicate wells were averaged, corrected by subtracting the blank control, and plotted as ThT fluorescence vs. time. Data were normalized with maximum ThT fluorescence intensity obtained for unmodified IAPP. Data were fitted to a sigmoidal Boltzmann model: Y=Yo+(Ymax−Yo)/1+e^−(T−T50)/ K where T 50 is the time required to reach half of the maximum fluorescence intensity, k is the apparent first-order constant, and Y max and Y 0 are the maximum and initial ThT fluorescence values. Lag time corresponds to T50 - 2/k. Data of at least six assays performed with different peptide lots were averaged and expressed as the mean ± S.D. Statistical analysis was performed using Student’s t test, and statistically significant difference between IAPP and analogs was established at (*) p < 0.05; (**) p < 0.005; (***) p < 0.0005.

[2] = Lipid membrane leakage (calcein-loaded LUVs); conditions: 25 μM peptide, 500 μM phospholipids; for Maximum membrane leakage (calcein fluorescence, % of that with Triton X-100): LUVs DOPC:DOPG 9:1, 20 mM Tris-HCl, 150 mM NaCl, pH 7.4, read every 10 min over 24 h, IAPP value reached after 10 h, at least four assays
Protocol: Large unilamellar vesicles (LUVs) were assembled from 1,2-Dioleoyl-sn-glycero-3-phosphocholine (DOPC) and 2-dioleoyl-sn-glycero-3-phospho-(1′-rac-glycerol) (DOPG) at a 9:1 M ratio (DOPC:DOPG). Lipids were solubilized in 100% chloroform, which was then evaporated. […] The lipid mixture was freeze-thawed five times before being extruded through a 100 nm membrane for 20 cycles. Nonencapsulated calcein was removed by gel filtration using a Sephadex G25 fine resin and 20 mM Tris-HCl, 150 mM NaCl, pH 7.4, as elution buffer. Final lipid concentration was determined by a colorimetric assay ([Babych et al., 2021]). Lyophilized peptides were solubilized in 20 mM Tris-HCl, 150 mM NaCl, pH 7.4, at 50 μM prior to dilution into calcein-LUVs, to reach 25 μM peptide and 500 μM phospholipids. Fluorescence was monitored in sealed black-wall, clear-bottom 96-well non-binding surface plates with 100 μL/well. […] 100% leakage (Fmax) was determined with 0.2% Triton X-100 and LUV leakage was reported using:
Membrane leakage (%) = (F−F baseline)/(F max−F baseline)
Data of at least four assays with different peptide lots were averaged and expressed as the mean ± S.D. Statistical analysis was performed using Student’s t test, and statistically significant difference was established at (*) p < 0.05; (**) p < 0.005; (***) p < 0.0005.

INS-1E cells [3] = test: Live/Dead viability assay (calcein-AM / ethidium homodimer-1, fluorescence microscopy); format: cell-based, Rat; conditions: 25 μM freshly solubilized peptide, 24 h, calcein-AM (green, live) and ethidium homodimer-1 (red, dead)
Protocol: (§1) Rat INS-1E cells were cultured in treated black-wall clear-bottom 96-well plates at a density of 25,000 cell/well in RPMI-1640 medium supplemented with 10% FBS, 2 mM L-glutamine, 100 U/ml penicillin, 100 μg/ml streptomycin, 10 mM HEPES, 1 mM sodium pyruvate and 50 μM β-mercaptoethanol. After 48 h of incubation at 37°C in 5% CO2, cells were treated with 50 μL of peptide freshly dissolved in 20 mM Tris-HCl, pH 7.4. […] Cell viability (%) was calculated from the ratio of the fluorescence of the treated cells to the vehicle-treated cells. Data of at least five assays performed with different peptide lots were averaged and expressed as the mean ± S.D. Statistical analysis was performed using Student’s t test, and statistically significant difference was established at (*) p < 0.05; (**) p < 0.005; (***) p < 0.0005. For Live/Dead viability assay, cells were plated in 12-well plates at density of 250,000 cell/well for 48 h before treatment with 25 μM peptide.

[4] = Peptide self-assembly under fully quiescent conditions (CD, ThT and ANS fluorescence, TEM, AFM); format: physicochemical; conditions: 50 μM peptide; for Assemblies observed by TEM after 48 h incubation: negative stain TEM; for ThT fluorescence of incubated peptide, in words: diluted to 25 μM with 40 μM ThT; for Incubation time at which the random coil to β-sheet conformational transition is seen (far-UV CD) / Secondary conformation / conformational transition over incubation (far-UV CD), in words: fully quiescent; for Incubation time at which the random coil to β-sheet conformational transition is seen (far-UV CD): microtubes, diluted to 25 μM for CD; for Secondary conformation / conformational transition over incubation (far-UV CD), in words: up to 7 days
Protocol: Solutions were prepared by dissolving the peptide at a concentration of 50 μM in 20 mM Tris-HCl, pH 7.4, and were incubated at room temperature without agitation in 1.5 ml Eppendorf microtubes. For IAPP12-17, the lyophilized peptide was dissolved in 20 mM acetate pH 6.5 in the presence of 3% DMSO, or HFIP, at a final concentration of 500 μM and the peptide solution was incubated at 37 °C under constant rotational agitation.
At the indicating time of incubation, peptide solutions were diluted to 25 μM in presence of 40 μM ThT, or 25 μM 8-anilino-1-naphthalenesulfonic acid (ANS). Fluorescence was measured in 10-mm pathlength microcells using a PTI QuantaMaster spectrofluorometer. For ThT, excitation was set at 440 nm, and the emission spectrum from 450 to 550 nm was recorded. For ANS, the excitation was set at 355 nm, and the emission scan was recorded from 385 to 585 nm.
After incubation, peptide solutions were diluted in water to 25 μM and incorporated into a 2-mm path length quartz cell. For IAPP12-17, the solution was diluted to 150 μM. Far-UV CD spectra were recorded from 190 to 260 nm using a Jasco J-815 CD spectropolarimeter at 25°C. The wavelength step was set at 0.5 nm with an average time of 10 s per scan at each wavelength. Spectra were background-subtracted with buffer solution. Raw data were converted to mean residue ellipticity (MRE): MRE=Mean residue weight (g/mol)X CD signal (deg)/10 X pathlength (cm) X peptide concentration (g/mL)
After incubation, peptide solutions were diluted to 10 μM, or 100 μΜ for IAPP12-17, before being applied on glow-discharged carbon films on 300-mesh copper grids. Samples were adsorbed and negatively stained with 1.5% uranyl formate for 45 s. Images were recorded using a FEI Tecnai G2 Spirit Twin microscope operating at 120 kV and equipped with a Gatan Ultrascan scan 4,000 4k × 4k CCD camera system.
After incubation, peptide solutions were diluted in 1% acetic acid to a concentration of 7.5 μΜ. […] Images were recorded using Veeco/Bruker multimode AFM instrument using ScanAsyst-air mode with a silicon tip (2–12 nm tip radius, 0.4 N/m force) on a nitride lever. Images were taken at 0.977 Hz and 512 scan/min.

INS-1E cells [5] = test: Cell viability by resazurin reduction; format: cell-based, Rat; conditions: 24 h, at least five assays; for Cell viability: 50 μM freshly dissolved peptide, relative to vehicle-treated cells; for Cytotoxicity compared with unmodified IAPP, in words: freshly dissolved peptide up to 50 μM
Protocol: as §1

[6] = 20 mM Tris-HCl pH 7.4, quiescent
[7] = 20 mM Tris-HCl pH 7.4, room temperature

Compound	Lag time of amyloid formation [1]	Maximum membrane leakage (calcein fluorescence, % of that with Triton X-100) [2]	Incubation time at which membrane leakage starts ([2]; LUVs DOPC:DOPG 9:1, pH 7.4)	Cell death in Live/Dead assay, in words (INS-1E cells [3])	Assemblies observed by TEM after 48 h incubation [4, 6]	ThT fluorescence of incubated peptide, in words [4, 6]	Incubation time at which the random coil to β-sheet conformational transition is seen (far-UV CD) [4, 7]	Cell viability (INS-1E cells [5])	Cytotoxicity compared with unmodified IAPP, in words (INS-1E cells [5])	ANS fluorescence of incubated peptide, in words ([4]; 20 mM Tris-HCl pH 7.4, quiescent, diluted to 25 μM with 25 μM ANS)	Secondary conformation / conformational transition over incubation (far-UV CD), in words [4, 7]	Assemblies observed by AFM after 24 h incubation ([4]; 20 mM Tris-HCl pH 7.4, room temperature, no agitation, 24 h)
CC[C@H](C)[C@H](NC(=O)[C@H](C)NC(=O)CNC(=O)[C@H](Cc1ccccc1)NC(=O)[C@H](CC(N)=O)NC(=O)[C@H](CC(N)=O)NC(=O)[C@H](CO)NC(=O)[C@H](CO)NC(=O)[C@H](Cc1c[nH]cn1)NC(=O)[C@@H](NC(=O)[C@H](CC(C)C)NC(=O)[C@H](Cc1ccccc1)NC(=O)[C@H](CC(N)=O)NC(=O)[C@H](C)NC(=O)[C@H](CC(C)C)NC(=O)[C@H](CCCNC(=N)N)NC(=O)[C@H](CCC(N)=O)NC(=O)[C@@H](NC(=O)[C@H](C)NC(=O)[C@@H]1CSSC[C@H](NC(=O)[C@@H](N)CCCCN)C(=O)N[C@@H](CC(N)=O)C(=O)N[C@@H]([C@@H](C)O)C(=O)N[C@@H](C)C(=O)N[C@@H]([C@@H](C)O)C(=O)N1)[C@@H](C)O)C(C)C)C(=O)N[C@@H](CC(C)C)C(=O)N[C@@H](CO)C(=O)N[C@@H](CO)C(=O)N[C@H](C(=O)N[C@@H](CC(N)=O)C(=O)N[C@H](C(=O)NCC(=O)N[C@@H](CO)C(=O)N[C@@H](CC(N)=O)C(=O)N[C@H](C(=O)N[C@@H](Cc1ccc(O)cc1)C(N)=O)[C@@H](C)O)C(C)C)[C@@H](C)O [IAPP, islet amyloid polypeptide]	3.9 ± 1.2 h	17%	5 h	sharp increase in the number of red cells and a decrease of green cells	prototypical fibrils	increase of ThT and ANS fluorescence	24 h	less than 10%	concentration-dependent decrease of metabolic activity	–	–	–
CC[C@H](C)[C@H](NC(=O)[C@H](C)NC(=O)CNC(=O)[C@H](Cc1ccccc1)NC(=O)[C@H](CC(N)=O)NC(=O)[C@H](CC(N)=O)NC(=O)[C@H](CO)NC(=O)[C@H](CO)NC(=O)[C@H](Cc1c[nH]cn1)NC(=O)[C@@H](NC(=O)[C@H](CC(C)C)NC(=O)[C@H](Cc1ccccc1)NC(=O)[C@H](C)NC(=O)[C@H](C)NC(=O)[C@H](CC(C)C)NC(=O)[C@H](CCCNC(=N)N)NC(=O)[C@H](CCC(N)=O)NC(=O)[C@@H](NC(=O)[C@H](C)NC(=O)[C@@H]1CSSC[C@H](NC(=O)[C@@H](N)CCCCN)C(=O)N[C@@H](CC(N)=O)C(=O)N[C@@H]([C@@H](C)O)C(=O)N[C@@H](C)C(=O)N[C@@H]([C@@H](C)O)C(=O)N1)[C@@H](C)O)C(C)C)C(=O)N[C@@H](CC(C)C)C(=O)N[C@@H](CO)C(=O)N[C@@H](CO)C(=O)N[C@H](C(=O)N[C@@H](CC(N)=O)C(=O)N[C@H](C(=O)NCC(=O)N[C@@H](CO)C(=O)N[C@@H](CC(N)=O)C(=O)N[C@H](C(=O)N[C@@H](Cc1ccc(O)cc1)C(N)=O)[C@@H](C)O)C(C)C)[C@@H](C)O [N14A]	–	50%	–	decreased toxicity compared to unmodified IAPP	dense network of thin fibrils	low ThT fluorescence	48 h	50%	reduced IAPP toxicity	high ANS signal	helical-like conformation with two minima at 206 and 222 nm between 2 and 24 h incubation	only poorly defined fibrils
V17A: full-length IAPP with Val17 substituted by Ala (KCNTATCATQRLANFLAHSSNNFGAILSSTNVGSNTY; disulfide 2-7; ends not checked; UniProt P10997 34-70, looked up, variant V17A)	–	34%	–	decreased toxicity compared to unmodified IAPP	short and poorly defined fibrils	low ThT and ANS binding properties	–	–	reduced IAPP toxicity	–	delayed the conformational transition	–
